Results reported in ChEMBL document CHEMBL1201862, “PubChem BioAssay data set” (2004).
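Protocol summary: plate cells (96-well), add compound at 5 concentrations, incubate 48 h, interpolate endpoints linearly. GI50 is the concentration that inhibits growth by half.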 The source made the active and inactive calls. No stated cut-off is given here; in the data, active = GI50 up to about 1.1 µM and inactive = higher.

What was measured:
Experiment in all cases: NCI-60 cell line screen, 48 h
[1] = test system: LOX IMVI
[2] = test system: CCRF-CEM
[3] = test system: UO-31
[4] = test system: MCF7
[5] = test system: HL-60
[6] = test system: K562
[7] = test system: CAKI-1
[8] = test system: KM12
[9] = test system: DU-145
[10] = test system: MDA-N
[11] = test system: NCI-H23
[12] = test system: MOLT-4
[13] = test system: OVCAR-5
[14] = test system: BT-549
[15] = test system: SK-MEL-5
[16] = test system: SN12C
[17] = test system: SK-OV-3
[18] = test system: HOP-92
[19] = test system: SK-MEL-28
[20] = test system: OVCAR-8

Compound	GI50 [1]	GI50 [2]	GI50 [3]	GI50 [4]	GI50 [5]	GI50 [6]	GI50 [7]	GI50 [8]	GI50 [9]	GI50 [10]	GI50 [11]	GI50 [12]	GI50 [13]	GI50 [14]	GI50 [15]	GI50 [16]	GI50 [17]	GI50 [18]	GI50 [19]	GI50 [20]
O=c1c2ncn(CCCl)c2n(-c2ccccc2)c(=S)n1-c1ccccc1	> 100 µM (inactive)	> 100 µM (inactive)	99.5 µM (inactive)	> 100 µM (inactive)	> 100 µM (inactive)	86.9 µM (inactive)	> 100 µM (inactive)	> 100 µM (inactive)	> 100 µM (inactive)	> 100 µM (inactive)	> 100 µM (inactive)	> 100 µM (inactive)	> 100 µM (inactive)	> 100 µM (inactive)	> 100 µM (inactive)	> 100 µM (inactive)	> 100 µM (inactive)	> 100 µM (inactive)	> 100 µM (inactive)	> 100 µM (inactive)
CN(C)CC1CCC/C(=C\c2ccc(N(C)C)cc2)C1=O (stereo not given)	1.67 µM (inactive)	> 100 µM (inactive)	10.4 µM (inactive)	1.02 µM (active)	> 100 µM (inactive)	28.1 µM (inactive)	1.8 µM (inactive)	1.44 µM (inactive)	17.1 µM (inactive)	7.28 µM (inactive)	15.1 µM (inactive)	4.97 µM (inactive)	13.9 µM (inactive)	16.2 µM (inactive)	17.6 µM (inactive)	16.1 µM (inactive)	17.8 µM (inactive)	3.33 µM (inactive)	5.64 µM (inactive)	5.45 µM (inactive)
COC(=O)C1=C(O)C(C(=O)OC)[C@]2(O)[C@H](C(=O)OC)[C@H]1C[C@@H](c1ccc(Cl)cc1)[C@H]2C(=O)OC (stereo not given in full)	10.7 µM (inactive)	2.3 µM (inactive)	8.97 µM (inactive)	4.07 µM (inactive)	1.75 µM (inactive)	4.27 µM (inactive)	7.73 µM (inactive)	11.5 µM (inactive)	7.11 µM (inactive)	3.78 µM (inactive)	7.18 µM (inactive)	3.64 µM (inactive)	14.5 µM (inactive)	6.12 µM (inactive)	6.41 µM (inactive)	5.16 µM (inactive)	2.7 µM (inactive)	19.3 µM (inactive)	9.06 µM (inactive)	5.89 µM (inactive)
COC(=O)C(Cc1c[nH]c2ccccc12)NP(=O)(O)OCC1OC(n2cc(I)c(=O)[nH]c2=O)CC1O (stereo not given)	> 100 µM (inactive)	> 100 µM (inactive)	> 100 µM (inactive)	> 100 µM (inactive)	> 100 µM (inactive)	> 100 µM (inactive)	> 100 µM (inactive)	> 100 µM (inactive)	> 100 µM (inactive)	> 100 µM (inactive)	> 100 µM (inactive)	> 100 µM (inactive)	> 100 µM (inactive)	> 100 µM (inactive)	> 100 µM (inactive)	> 100 µM (inactive)	> 100 µM (inactive)	> 100 µM (inactive)	> 100 µM (inactive)	> 100 µM (inactive)
NC(=O)/C(=C\c1ccncc1)c1cccc2ccccc12	> 100 µM (inactive)	> 100 µM (inactive)	> 100 µM (inactive)	> 100 µM (inactive)	> 100 µM (inactive)	> 100 µM (inactive)	> 100 µM (inactive)	> 100 µM (inactive)	67.8 µM (inactive)	43.1 µM (inactive)	91.6 µM (inactive)	> 100 µM (inactive)	> 100 µM (inactive)	> 100 µM (inactive)	56.9 µM (inactive)	34.6 µM (inactive)	> 100 µM (inactive)	> 100 µM (inactive)	> 100 µM (inactive)	> 100 µM (inactive)
CC(=O)c1sc2c(c1OC(=O)c1ccccc1)c(=O)n(-c1ccccc1)c(=S)n2-c1ccccc1	2.26 µM (inactive)	2.51 µM (inactive)	4.09 µM (inactive)	35.7 µM (inactive)	34 µM (inactive)	17.4 µM (inactive)	8.43 µM (inactive)	33.1 µM (inactive)	28.1 µM (inactive)	6.4 µM (inactive)	27.3 µM (inactive)	2.26 µM (inactive)	3.82 µM (inactive)	> 10 µM (inactive)	5.62 µM (inactive)	5.78 µM (inactive)	4.14 µM (inactive)	1.69 µM (inactive)	3.89 µM (inactive)	4.38 µM (inactive)
CCCCCCOc1ccc(C(=O)NOCc2ccccc2)cc1	> 100 µM (inactive)	90.2 µM (inactive)	> 100 µM (inactive)	> 100 µM (inactive)	39.7 µM (inactive)	35.6 µM (inactive)	> 100 µM (inactive)	> 100 µM (inactive)	> 100 µM (inactive)	45.8 µM (inactive)	> 100 µM (inactive)	79.6 µM (inactive)	> 100 µM (inactive)	> 100 µM (inactive)	> 100 µM (inactive)	> 100 µM (inactive)	> 100 µM (inactive)	> 100 µM (inactive)	> 100 µM (inactive)	> 100 µM (inactive)
O=c1[nH]/c(=C/c2ccc(OCc3ccccc3)cn2)c(=O)[nH]/c1=C/c1ccc([N+](=O)[O-])cc1	> 100 µM (inactive)	> 100 µM (inactive)	> 100 µM (inactive)	> 100 µM (inactive)	> 100 µM (inactive)	> 100 µM (inactive)	> 37.8 µM (inactive)	> 100 µM (inactive)	> 100 µM (inactive)	> 100 µM (inactive)	> 100 µM (inactive)	> 63.1 µM (inactive)	> 100 µM (inactive)	54.7 µM (inactive)	> 100 µM (inactive)	> 100 µM (inactive)	> 73.5 µM (inactive)	> 100 µM (inactive)	> 100 µM (inactive)	> 100 µM (inactive)
CC12CCC(C/C1=N\NC(N)=O)C2(C)C (stereo not given)	> 100 µM (inactive)	> 100 µM (inactive)	> 100 µM (inactive)	> 100 µM (inactive)	> 100 µM (inactive)	> 100 µM (inactive)	> 100 µM (inactive)	> 100 µM (inactive)	> 100 µM (inactive)	> 100 µM (inactive)	> 100 µM (inactive)	> 100 µM (inactive)	> 100 µM (inactive)	> 100 µM (inactive)	> 100 µM (inactive)	> 100 µM (inactive)	> 100 µM (inactive)	> 100 µM (inactive)	> 100 µM (inactive)	> 100 µM (inactive)
COC(=O)c1ccccc1C1CN=NC12Cc1cc(C)ccc1C2=O (stereo not given)	36.4 µM (inactive)	> 100 µM (inactive)	52.4 µM (inactive)	3.58 µM (inactive)	92.7 µM (inactive)	86.9 µM (inactive)	84.1 µM (inactive)	92.9 µM (inactive)	> 100 µM (inactive)	72.9 µM (inactive)	> 100 µM (inactive)	> 100 µM (inactive)	> 100 µM (inactive)	> 100 µM (inactive)	> 100 µM (inactive)	> 100 µM (inactive)	> 100 µM (inactive)	43.2 µM (inactive)	> 100 µM (inactive)	> 100 µM (inactive)
O=C1CCCC2=C1CC1=C(CCCC1=O)N2c1ccc(-c2ccccc2)cc1	> 100 µM (inactive)	> 100 µM (inactive)	> 100 µM (inactive)	> 100 µM (inactive)	> 29.6 µM (inactive)	> 100 µM (inactive)	> 100 µM (inactive)	> 100 µM (inactive)	> 100 µM (inactive)	> 100 µM (inactive)	> 100 µM (inactive)	> 100 µM (inactive)	> 100 µM (inactive)	> 40 µM (inactive)	> 100 µM (inactive)	> 100 µM (inactive)	> 76.9 µM (inactive)	> 75.3 µM (inactive)	> 100 µM (inactive)	> 100 µM (inactive)
Cc1cc(OCc2nc(N)nc(N)c2-c2ccc(Cl)c(Cl)c2)ccc1[N+](=O)[O-]	0.0818 µM (active)	0.0235 µM (active)	0.791 µM (active)	0.262 µM (active)	0.356 µM (active)	0.0255 µM (active)	0.558 µM (active)	0.692 µM (active)	0.582 µM (active)	0.0776 µM (active)	0.141 µM (active)	0.0933 µM (active)	0.45 µM (active)	1.03 µM (active)	0.224 µM (active)	0.726 µM (active)	3.01 µM (inactive)	4.92 µM (inactive)	0.531 µM (active)	0.556 µM (active)
COc1ccc(/C=N/c2nc3cc4sc(/N=C/c5ccc(OC)cc5)nc4cc3s2)cc1	28.3 µM (inactive)	4.2 µM (inactive)	55.7 µM (inactive)	11.6 µM (inactive)	18.4 µM (inactive)	34 µM (inactive)	27 µM (inactive)	34.1 µM (inactive)	> 23.7 µM (inactive)	34.2 µM (inactive)	15.9 µM (inactive)	8.15 µM (inactive)	> 81.5 µM (inactive)	27.3 µM (inactive)	13.6 µM (inactive)	32.7 µM (inactive)	49.7 µM (inactive)	> 78.9 µM (inactive)	> 86.1 µM (inactive)	> 60.5 µM (inactive)
